Assay results as given in patent publication US20230391786A1, “cGAS INHIBITORS” (Eli Lilly and Company, priority 2022, published 2023).

tested on: cGAS activity in THP1 cells (IFNb as marker); test: Cellular assay to measure cGAS activity (IFNb production in PMA-differentiated THP1 cells stimulated by RDG-Adenovirus-GFP); format: cell-based, human; conditions: Homo sapiens, THP-1, THP1 cells, PMA differentiated, RDG-Adenovirus-GFP 1000 MOI, IFNb AlphaLISA, overnight incubation; read-out: IC50 (μM), Cellular assay for Compounds 95-348
Protocol: Cellular assay to measure cGAS activity: Use THP1 cell line from ATCC to determine inhibition of cGAS activity by test compounds in human cells. Plate cells on 96-well plates at 0.2×10^6/well and differentiate with phorbol myristate acetate (PMA) at 37° C./5% CO2. After 24 hours, replace PMA containing media with media lacking PMA and further incubate overnight. Stimulate cells were then by RDG-Adenovirus-GFP (Vector Biolabs #1768) at 1000 MOI for 4 hours prior to the addition of test compounds. After overnight incubation, transfer 10 μL of the media from each well to a new plate for IFNb analysis as a marker for cGAS activity. Measure quantification of IFNb with an IFNb AlphaLISA Detection kit (Perkin Elmer AL3133F) by mixing the acceptor beads with the cell supernatant followed by the addition of the biotinylated antibody and donor beads. Measure the relative fluorescence signal produced from the interaction of the donor and acceptor beads by a PHERAStar AlphaLISA protocol and evaluate the inhibitory effect of a compound by plotting specific inhibition of IFNb production against log concentration of the test compound. Calculate IC50 values using a 4-parameter non-linear logistic equation (y=(S0+((SInf−S0)/(1+((qAC50/x)^nHill))))).

| IC50 [µM] | SMILES |
| --- | --- |
| 4.8 | CC(=O)N1CCn2c(c(-c3cn[nH]c3)c3c(NC(=O)C(F)(F)F)cc(Cl)c(Cl)c32)C1 [Example 256, N-[2-Acetyl-6,7-dichloro-10-(1H-pyrazol-4-yl)-3,4-dihydro-1H-pyrazino[1,2-a]indol-9-yl]-2,2,2-trifluoro-acetamide] |
| 0.492 | O=C(CO)Nc1cc(Cl)c(Cl)c2[nH]nc(-c3cn[nH]c3)c12 [Example 336, N-(6,7-Dichloro-3-(1H-pyrazol-4-yl)-1H-indazol-4-yl)-2-hydroxyacetamide] |
| 1.13 | Clc1cc(NC2COC2)c2c(-c3cn[nH]c3)c[nH]c2c1Cl [Example 177, 6,7-Dichloro-N-(oxetan-3-yl)-3-(1H-pyrazol-4-yl)-1H-indol-4-amine] |
| > 10 | NC1CCn2c1c(-c1cn[nH]c1)c1ccc(Cl)c(Cl)c12 (stereo not shown) [Example 241, 5,6-Dichloro-9-(1H-pyrazol-4-yl)-2,3-dihydro-1H-pyrrolo[1,2-a]indol-1-amine] |
| 2.1 | OCCn1cc(-n2cc(-c3cn[nH]c3)c3ccc(Cl)cc32)nn1 [Example 229] |
| > 10 | Cn1ncnc1COCC(=O)N1CCn2c(c(-c3cn[nH]c3)c3c(OCC#N)cc(Cl)c(Cl)c32)C1 [Example 181] |

same assay, conditions: Homo sapiens, THP-1, read-out: IC50 (μM), Cellular assay for Compounds 95-348

| SMILES | IC50 [µM] |
| --- | --- |
| O=C(CF)Nc1cc(Cl)c(Cl)c2[nH]cc(-c3cn[nH]c3)c12 [Example 170, N-(6,7-Dichloro-3-(1H-pyrazol-4-yl)-1H-indol-4-yl)-2-fluoroacetamide] | 0.129 |

same assay, conditions: THP1 cells, PMA differentiated, RDG-Adenovirus-GFP 1000 MOI, IFNb AlphaLISA, overnight incubation; read-out: IC50 (μM), Cellular assay for Compounds 95-348

| IC50 [µM] | SMILES |
| --- | --- |
| 0.635 | O[C@@H]1C[C@H](Oc2cc(Cl)c(Cl)c3[nH]cc(-c4cn[nH]c4)c23)[C@@H](O)C1 (single isomer, unassigned) [Example 270, 4-[[6,7-Dichloro-3-(1H-pyrazol-4-yl)-1H-indol-4-yl]oxy]cyclopentane-1,3-diol] |

target: recombinant human cGAS (Homo sapiens (Human), UniProt Q8N884); test: In vitro inhibition assay of cGAS activity (cGAMP production, RapidFire mass spectrometry); format: biochemical; conditions: 10 nM recombinant human cGAS, 60 nM 75-bp dsDNA, ATP, GTP, room temperature 3 hours, read-out: IC50 (μM), In vitro inhibition assay for Compounds 1-94
Sequence (Q8N884 whole entry): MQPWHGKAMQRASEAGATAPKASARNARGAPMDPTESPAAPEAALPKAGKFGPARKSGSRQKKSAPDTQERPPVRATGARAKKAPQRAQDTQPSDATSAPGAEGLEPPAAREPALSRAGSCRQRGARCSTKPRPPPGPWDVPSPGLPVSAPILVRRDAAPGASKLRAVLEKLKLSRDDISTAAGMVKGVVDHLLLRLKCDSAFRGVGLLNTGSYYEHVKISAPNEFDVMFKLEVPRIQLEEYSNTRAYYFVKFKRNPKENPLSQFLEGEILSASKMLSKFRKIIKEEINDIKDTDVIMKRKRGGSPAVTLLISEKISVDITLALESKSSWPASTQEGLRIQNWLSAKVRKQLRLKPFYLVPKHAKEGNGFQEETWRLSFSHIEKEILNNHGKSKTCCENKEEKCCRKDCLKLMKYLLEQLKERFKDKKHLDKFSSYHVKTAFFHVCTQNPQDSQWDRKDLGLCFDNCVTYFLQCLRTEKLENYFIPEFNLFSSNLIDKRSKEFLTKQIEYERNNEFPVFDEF
Procedure, shortened: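 Product cGAMP was quantified by RapidFire MS against a difluoro-cGAMP internal standard after a formic acid quench. The reaction contained 10 nM recombinant full-length human cGAS, 75-bp dsDNA (60 nM), ATP and GTP (50 μM) and ran for 3 h at room temperature. IC50 values came from 4-parameter nonlinear regression.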

| IC50 [µM] | SMILES |
| --- | --- |
| 0.04 | CN1CCOC(C(=O)N2CCn3c(c(-c4cn[nH]c4)c4ccc(Cl)c(Cl)c43)C2)C1 (stereo not shown) [Example 50, [6,7-dichloro-10-(1H-pyrazol-4-yl)-3,4-dihydro-1H-pyrazino[1,2-a]indol-2-yl]-(4-methylmorpholin-2-yl)methanone] |
| 0.0578 | Clc1ccc2c(-c3cn[nH]c3)c(CNc3ccon3)[nH]c2c1Cl [Example 6, N-[[6,7-Dichloro-3-(1H-pyrazol-4-yl)-1H-indol-2-yl]methyl]isoxazol-3-amine] |
| 0.0649 | Cn1cnnc1NCc1[nH]c2c(Cl)c(Cl)ccc2c1-c1cn[nH]c1 [Example 12, N-[[6,7-Dichloro-3-(1H-pyrazol-4-yl)-1H-indol-2-yl]methyl]-4-methyl-1,2,4-triazol-3-amine] |
| 0.0219 | N#CCOc1cc(Cl)c(Cl)c2c1c(-c1cn[nH]c1)c1n2CCNC1 [Example 88, 2-((6,7-Dichloro-10-(1H-pyrazol-4-yl)-1,2,3,4-tetrahydropyrazino[1,2-a]indol-9-yl)oxy)acetonitrile] |
| 0.0534 | CN(C)C(=O)CCC(=O)N1CCn2c(c(-c3cn[nH]c3)c3ccc(Cl)c(Cl)c32)C1 [Example 44, 4-[6,7-dichloro-10-(1H-pyrazol-4-yl)-3,4-dihydro-1H-pyrazino[1,2-a]indol-2-yl]-N,N-dimethyl-4-oxo-butanamide] |
| 0.062 | OCCC1CCc2c(-c3cn[nH]c3)c3ccc(Cl)c(Cl)c3n2C1 (stereo not shown) [Example 73, 2-[3,4-Dichloro-10-(1H-pyrazol-4-yl)-6,7,8,9-tetrahydropyrido[1,2-a]indol-7-yl] ethanol] |
| 0.0246 | CC(=O)NCc1[nH]c2c(Cl)c(Cl)ccc2c1-c1cn[nH]c1 [Example 5, N-[[6,7-Dichloro-3-(1H-pyrazol-4-yl)-1H-indol-2-yl]methyl]acetamide] |
| 0.0427 | O=C1CCc2c(-c3cn[nH]c3)c3ccc(Cl)c(Cl)c3n2C1 [Example 17, 3,4-Dichloro-10-(1H-pyrazol-4-yl)-8,9-dihydro-6H-pyrido[1,2-a]indol-7-one] |
| 0.0485 | CN1CCn2c(c(-c3cn[nH]c3)c3c(NCC#N)cc(Cl)c(Cl)c32)C1=O [Example 86, 2-[[6,7-Dichloro-2-methyl-1-oxo-10-(1H-pyrazol-4-yl)-3,4-dihydropyrazino[1,2-a]indol-9-yl]amino]acetonitrile] |
| 0.0225 | CS(=O)(=O)NC1CCc2c(-c3cn[nH]c3)c3ccc(Cl)c(Cl)c3n2C1 (single isomer, unassigned) [Example 22, N-[3,4-Dichloro-10-(1H-pyrazol-4-yl)-6,7,8,9-tetrahydropyrido[1,2-a]indol-7-yl]methanesulfonamide] |
| 0.0436 | O=C1Cn2c(c(-c3cn[nH]c3)c3ccc(Cl)c(Cl)c32)CCN1 [Example 7, 7,8-Dichloro-11-(1H-pyrazol-4-yl)-1,2,3,5-tetrahydro-[1,4]diazepino[1,7-a]indol-4-one] |
| 0.0663 | OC1CCc2c(-c3cn[nH]c3)c3ccc(Cl)c(Cl)c3n2C1 (single isomer, unassigned) [Example 19, 3,4-Dichloro-10-(1H-pyrazol-4-yl)-6,7,8,9-tetrahydropyrido[1,2-a]indol-7-ol] |
| 0.0887 | CS(=O)(=O)NC1CCc2c(-c3cn[nH]c3)c3ccc(Cl)c(Cl)c3n2C1 (single isomer, unassigned) [Example 23, N-[3,4-Dichloro-10-(1H-pyrazol-4-yl)-6,7,8,9-tetrahydropyrido[1,2-a]indol-7-yl]methanesulfonamide] |
| 0.0912 | O=C(Cn1cncn1)N1CCn2c(c(-c3cn[nH]c3)c3ccc(Cl)c(Cl)c32)C1 [Example 43, 1-[6,7-dichloro-10-(1H-pyrazol-4-yl)-3,4-dihydro-1H-pyrazino[1,2-a]indol-2-yl]-2-(1,2,4-triazol-1-yl)ethanone] |
| 0.0557 | Cc1[nH]c2c(Cl)c(Cl)ccc2c1-c1cn[nH]c1 [Example 2, 6,7-Dichloro-2-methyl-3-(1H-pyrazol-4-yl)-1H-indole] |
| 0.0965 | O=C1CCc2c(-c3cn[nH]c3)c3ccc(Cl)c(Cl)c3n21 [Example 68, 7,8-Dichloro-4-(1H-pyrazol-4-yl)-2,3-dihydropyrrolo[1,2-a] indol-1-one] |
| 0.0737 | O=C(O)CCn1cc(-c2cn[nH]c2)c2ccc(Cl)c(Cl)c21 [Example 35, 3-[6,7-Dichloro-3-(1H-pyrazol-4-yl)indol-1-yl]propanoic acid] |
| 0.0287 | N#CCNc1cc(Cl)c(Cl)c2c1c(-c1cn[nH]c1)c1n2CCN(C(=O)CO)C1 [Example 92, 2-[[6,7-Dichloro-2-(2-hydroxyacetyl)-10-(1H-pyrazol-4-yl)-3,4-dihydro-1H-pyrazino[1,2-a]indol-9-yl]amino]acetonitrile] |

same assay, conditions: 10 nM recombinant human cGAS, 60 nM 75-bp dsDNA, ATP, GTP, room temperature 3 hours, read-out: IC50 (μM), In vitro inhibition assay for Compounds 95-348

| IC50 [µM] | SMILES |
| --- | --- |
| 0.0207 | O[C@@H]1C[C@H](Oc2cc(Cl)c(Cl)c3[nH]cc(-c4cn[nH]c4)c23)[C@@H](O)C1 (single isomer, unassigned) [Example 270, 4-[[6,7-Dichloro-3-(1H-pyrazol-4-yl)-1H-indol-4-yl]oxy]cyclopentane-1,3-diol] |
| 0.0386 | CC(=O)N1CCn2c(c(-c3cn[nH]c3)c3c(NC(=O)C(F)(F)F)cc(Cl)c(Cl)c32)C1 [Example 256, N-[2-Acetyl-6,7-dichloro-10-(1H-pyrazol-4-yl)-3,4-dihydro-1H-pyrazino[1,2-a]indol-9-yl]-2,2,2-trifluoro-acetamide] |
| 0.0385 | O=C(CO)Nc1cc(Cl)c(Cl)c2[nH]nc(-c3cn[nH]c3)c12 [Example 336, N-(6,7-Dichloro-3-(1H-pyrazol-4-yl)-1H-indazol-4-yl)-2-hydroxyacetamide] |
| 0.0245 | Clc1cc(NC2COC2)c2c(-c3cn[nH]c3)c[nH]c2c1Cl [Example 177, 6,7-Dichloro-N-(oxetan-3-yl)-3-(1H-pyrazol-4-yl)-1H-indol-4-amine] |
| 0.055 | CCN1C(=O)CCC1C(=O)N1CCn2c(c(-c3cn[nH]c3)c3ccc(Cl)c(Cl)c32)C1 (stereo not shown) [Example 320, 5-(6,7-Dichloro-10-(1H-pyrazol-4-yl)-1,2,3,4-tetrahydropyrazino[1,2-a]indole-2-carbonyl)-1-ethylpyrrolidin-2-one] |
| 0.0682 | CCC(=O)NC(C)C(=O)N1CCn2c(c(-c3cn[nH]c3)c3ccc(Cl)c(Cl)c32)C1 (stereo not shown) [Example 329, N-(1-(6,7-Dichloro-10-(1H-pyrazol-4-yl)-3,4-dihydropyrazino[1,2-a]indol-2(1H)-yl)-1-oxopropan-2-yl)propionamide] |
| 0.06 | Cc1noc(COCC(=O)N2CCn3c(c(-c4cn[nH]c4)c4ccc(Cl)c(Cl)c43)C2)n1 [Example 322, 1-(6,7-Dichloro-10-(1H-pyrazol-4-yl)-3,4-dihydropyrazino[1,2-a]indol-2(1H)-yl)-2-((3-methyl-1,2,4-oxadiazol-5-yl)methoxy)ethan-1-one] |
| 0.0468 | COCCN1CC(C(=O)N2CCn3c(c(-c4cn[nH]c4)c4ccc(Cl)c(Cl)c43)C2)CC1=O (stereo not shown) [Example 312, 4-(6,7-dichloro-10-(1H-pyrazol-4-yl)-1,2,3,4-tetrahydropyrazino[1,2-a]indole-2-carbonyl)-1-(2-methoxyethyl)pyrrolidin-2-one] |
| 0.0864 | N#CCC(=O)Nc1cc(Cl)c(Cl)c2[nH]cc(-c3cn[nH]c3)c12 [Example 176, 2-Cyano-N-[6,7-dichloro-3-(1H-pyrazol-4-yl)-1H-indol-4-yl]acetamide] |
| 0.043 | CN1CC(=O)N(CC(=O)N2CCn3c(c(-c4cn[nH]c4)c4ccc(Cl)c(Cl)c43)C2)C1=O [Example 311, 3-(2-(6,7-Dichloro-10-(1H-pyrazol-4-yl)-3,4-dihydropyrazino[1,2-a]indol-2(1H)-yl)-2-oxoethyl)-1-methylimidazolidine-2,4-dione] |

| SMILES | IC50 [µM] |
| --- | --- |
| O=C(CF)Nc1cc(Cl)c(Cl)c2[nH]cc(-c3cn[nH]c3)c12 [Example 170, N-(6,7-Dichloro-3-(1H-pyrazol-4-yl)-1H-indol-4-yl)-2-fluoroacetamide] | 0.00567 |
